Usually Kd stands for the free concentration of one partner at which half of the binding sites on the other are occupied at equilibrium, for simple one-to-one binding.

The values that follow come from patent US20220281841A1, “ETHYNYLHETEROCYCLES AS RHO-ASSOCIATED COILED-COIL KINASE (ROCK) INHIBITORS” (Angion Biomedica Corp., priority 2019, published 2022).

One test deals with T1, ROCK2 (Homo sapiens, UniProt O75116).
T1 construct: purchased DiscoverX (KINOMEscan KdELECT service); host or cells: E. coli BL21-derived (T7 phage) or HEK-293
T1 sequence (O75116 whole entry): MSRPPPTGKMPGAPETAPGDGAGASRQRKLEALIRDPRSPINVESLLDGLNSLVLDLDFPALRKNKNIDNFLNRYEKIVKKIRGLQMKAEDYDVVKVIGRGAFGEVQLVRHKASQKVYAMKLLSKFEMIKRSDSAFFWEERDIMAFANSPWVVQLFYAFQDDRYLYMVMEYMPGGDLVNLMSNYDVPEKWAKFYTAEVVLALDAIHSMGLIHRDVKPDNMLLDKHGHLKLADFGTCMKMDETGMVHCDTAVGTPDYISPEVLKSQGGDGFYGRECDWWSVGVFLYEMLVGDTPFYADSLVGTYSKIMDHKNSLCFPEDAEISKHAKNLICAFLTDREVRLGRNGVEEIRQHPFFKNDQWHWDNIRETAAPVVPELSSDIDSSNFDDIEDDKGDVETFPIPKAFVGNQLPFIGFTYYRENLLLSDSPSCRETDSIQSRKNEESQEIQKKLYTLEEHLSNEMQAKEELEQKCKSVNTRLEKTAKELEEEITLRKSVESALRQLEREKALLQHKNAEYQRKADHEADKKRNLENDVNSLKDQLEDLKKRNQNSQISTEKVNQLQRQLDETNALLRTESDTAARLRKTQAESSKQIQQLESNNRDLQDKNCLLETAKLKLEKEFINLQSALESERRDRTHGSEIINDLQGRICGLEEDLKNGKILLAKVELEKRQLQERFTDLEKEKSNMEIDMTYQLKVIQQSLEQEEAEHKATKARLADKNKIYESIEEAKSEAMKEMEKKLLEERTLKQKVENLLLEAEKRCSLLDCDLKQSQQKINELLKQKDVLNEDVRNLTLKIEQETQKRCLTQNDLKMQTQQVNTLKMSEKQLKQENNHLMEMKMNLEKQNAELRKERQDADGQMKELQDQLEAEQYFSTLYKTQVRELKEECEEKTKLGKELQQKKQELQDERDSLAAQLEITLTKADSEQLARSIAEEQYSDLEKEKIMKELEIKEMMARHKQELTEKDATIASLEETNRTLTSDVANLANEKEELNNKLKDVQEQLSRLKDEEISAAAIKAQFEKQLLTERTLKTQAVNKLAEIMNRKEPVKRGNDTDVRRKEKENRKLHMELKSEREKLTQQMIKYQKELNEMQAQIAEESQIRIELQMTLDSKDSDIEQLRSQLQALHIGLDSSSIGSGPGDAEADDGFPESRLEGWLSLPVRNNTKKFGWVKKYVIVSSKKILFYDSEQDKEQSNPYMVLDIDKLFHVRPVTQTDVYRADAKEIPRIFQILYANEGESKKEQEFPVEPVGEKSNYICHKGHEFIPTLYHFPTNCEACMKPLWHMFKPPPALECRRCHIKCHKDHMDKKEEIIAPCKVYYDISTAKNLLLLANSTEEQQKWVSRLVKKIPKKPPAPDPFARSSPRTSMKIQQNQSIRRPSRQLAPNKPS
Description: ROCK2 kinase binding affinity, DiscoverX KINOMEscan KdELECT. The conditions noted are these: for ROCK 2 Selectivity: ROCK2 over ROCK1, from Kd values, N/C = not calculated; for Kd: equilibrium dissociation constant, 11-point 3-fold dilution series, read-out: Kd (μM) ROCK2. The protocol:
(§1) 1. ROCK1 and ROCK2 kinase assays: The ROCK1 and ROCK2 kinase binding affinities of compounds in this invention were determined by DiscoverX's KINOMEscan™ KdELECT technology (https://www.discoverx.com/kinomescan-elect-kinase-screening-and-profiling-services): Kinase-tagged T7 phage strains were prepared in an E. coli host derived from the BL21 strain. E. coli were grown to log-phase and infected with T7 phage and incubated with shaking at 32° C. until lysis. The lysates were centrifuged and filtered to remove cell debris. The remaining kinases were produced in HEK-293 cells and subsequently tagged with DNA for qPCR detection. Streptavidin-coated magnetic beads were treated with biotinylated small molecule ligands for 30 minutes at room temperature to generate affinity resins for kinase assays. The liganded beads were blocked with excess biotin and washed with blocking buffer (SeaBlock (Pierce), 1% BSA, 0.05% Tween 20, 1 mM DTT) to remove unbound ligand and to reduce nonspecific binding. […] Test compounds were prepared as 111X stocks in 100% DMSO. Kds were determined using an 11-point 3-fold compound dilution series with three DMSO control points. […] The compounds were then diluted directly into the assays such that the final concentration of DMSO was 0.9%. All reactions performed in polypropylene 384-well plate. Each was a final volume of 0.02 ml. […] The kinase concentration in the eluates was measured by qPCR.

The target of a further test is T2, ROCK1 (Homo sapiens, UniProt Q13464).
T2 construct: purchased DiscoverX (KINOMEscan KdELECT service); host or cells: E. coli BL21-derived (T7 phage) or HEK-293
T2 sequence (Q13464 whole entry): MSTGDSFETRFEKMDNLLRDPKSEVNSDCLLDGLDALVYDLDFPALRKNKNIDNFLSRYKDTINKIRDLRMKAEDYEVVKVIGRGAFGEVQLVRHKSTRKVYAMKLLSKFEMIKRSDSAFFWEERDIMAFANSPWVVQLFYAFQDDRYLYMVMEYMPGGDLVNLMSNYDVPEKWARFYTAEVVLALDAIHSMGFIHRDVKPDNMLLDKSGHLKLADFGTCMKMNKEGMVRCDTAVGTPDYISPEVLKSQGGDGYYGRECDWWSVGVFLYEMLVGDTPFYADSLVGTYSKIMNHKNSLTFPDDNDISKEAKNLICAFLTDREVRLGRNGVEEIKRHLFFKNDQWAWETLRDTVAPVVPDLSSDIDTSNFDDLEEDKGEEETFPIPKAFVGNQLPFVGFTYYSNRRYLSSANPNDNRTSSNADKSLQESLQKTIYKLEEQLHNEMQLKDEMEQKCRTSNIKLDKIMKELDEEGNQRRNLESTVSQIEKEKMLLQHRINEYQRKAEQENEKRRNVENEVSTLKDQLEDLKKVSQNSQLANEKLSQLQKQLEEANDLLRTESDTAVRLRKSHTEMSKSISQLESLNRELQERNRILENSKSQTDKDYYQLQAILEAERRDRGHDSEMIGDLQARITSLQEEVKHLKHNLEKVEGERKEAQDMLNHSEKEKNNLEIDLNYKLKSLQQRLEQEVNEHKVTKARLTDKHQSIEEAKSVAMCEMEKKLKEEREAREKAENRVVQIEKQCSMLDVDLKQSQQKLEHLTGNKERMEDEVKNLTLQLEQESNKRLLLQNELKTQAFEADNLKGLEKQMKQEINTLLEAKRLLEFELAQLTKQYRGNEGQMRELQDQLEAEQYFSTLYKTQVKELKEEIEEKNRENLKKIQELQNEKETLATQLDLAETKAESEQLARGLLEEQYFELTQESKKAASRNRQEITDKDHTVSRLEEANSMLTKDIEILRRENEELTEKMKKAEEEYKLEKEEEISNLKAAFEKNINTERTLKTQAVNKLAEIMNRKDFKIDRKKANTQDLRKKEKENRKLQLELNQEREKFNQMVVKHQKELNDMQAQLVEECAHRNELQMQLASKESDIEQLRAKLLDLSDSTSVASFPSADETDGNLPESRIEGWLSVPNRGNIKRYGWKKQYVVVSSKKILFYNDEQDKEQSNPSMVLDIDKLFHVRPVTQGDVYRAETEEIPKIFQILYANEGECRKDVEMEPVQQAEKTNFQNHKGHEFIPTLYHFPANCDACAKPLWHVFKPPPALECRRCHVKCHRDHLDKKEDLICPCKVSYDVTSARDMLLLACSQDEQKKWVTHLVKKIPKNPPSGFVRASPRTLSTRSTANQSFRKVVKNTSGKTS
Nature of the test: ROCK1 kinase binding affinity, DiscoverX KINOMEscan KdELECT. The following applies: equilibrium dissociation constant, 11-point 3-fold dilution series. The protocol:
as §1

Counter-ions that a name gives are not always drawn. A value given as a limit tells only on which side of the number the result lay.

On to `COCCOc1ccc2c(c1)CN(c1nccc(-c3nccc(C#Cc4ccc5[nH]ncc5c4)n3)n1)C2` [Ex. 47, 5-((2′-(5-(2-Methoxyethoxy)isoindolin-2-yl)-[2,4′-bipyrimidin]-4-yl)ethynyl)-1H-indazole], for which, on ROCK2, the “ROCK 2 Selectivity” value is 51.6. Besides, the Kd on ROCK2 is 0.0031 µM; on ROCK1, 0.16 µM.

In the case of `C(#Cc1ccnc(-c2ccnc(N3CC(c4ccccc4)C3)n2)n1)c1ccc2[nH]ncc2c1` [Ex. 48, 5-((2′-(3-Phenylazetidin-1-yl)-[2,4′-bipyrimidin]-4-yl)ethynyl)-1H-indazole trifluoroacetate], on ROCK2, the “ROCK 2 Selectivity” value was 36.7 and the Kd came to 0.15 µM. For the same compound, the Kd at ROCK1 turned out to be 5.5 µM.

Regarding `COC(=O)c1ccc(C2CN(c3nccc(-c4nccc(C#Cc5ccc6[nH]ncc6c5)n4)n3)C2)cc1` [Ex. 49, Methyl 4-(1-(4-((1H-indazol-5-yl)ethynyl)-[2,4′-bipyrimidin]-2′-yl)azetidin-3-yl)benzoate trifluoroacetate], at ROCK2, the “ROCK 2 Selectivity” value was >120 and the Kd was 0.25 µM. Further, the Kd at ROCK1 was > 30 µM.

On to `N#Cc1ccc(C2CN(c3nccc(-c4nccc(C#Cc5ccc6[nH]ncc6c5)n4)n3)C2)cc1` [Ex. 50, 4-(1-(4-((1H-Indazol-5-yl)ethynyl)-[2,4′-bipyrimidin]-2′-yl)azetidin-3-yl)benzonitrile trifluoroacetate], for which, on ROCK2, the “ROCK 2 Selectivity” value was 45 and the Kd is 0.12 µM. This compound also gave a Kd at ROCK1 of 5.4 µM.

As for `O=C(O)c1ccc(C2CN(c3nccc(-c4nccc(C#Cc5ccc6[nH]ncc6c5)n4)n3)C2)cc1` [Ex. 51, 4-(1-(4-((1H-Indazol-5-yl)ethynyl)-[2,4′-bipyrimidin]-2′-yl)azetidin-3-yl)benzoic acid], on ROCK2, the “ROCK 2 Selectivity” value is on record as 73 and the Kd was 0.15 µM. Further, on ROCK1, binding was characterised by a dissociation constant (Kd) of 11 µM.

As to `C(#Cc1ccnc(-c2ccnc(N3CCN(c4ccccc4)CC3)n2)n1)c1ccc2[nH]ncc2c1` [Ex. 52, 5-((2′-(4-Phenylpiperazin-1-yl)-[2,4′-bipyrimidin]-4-yl)ethynyl)-1H-indazole], on ROCK2, the “ROCK 2 Selectivity” value is 26.5 and the dissociation constant (Kd) amounted to 0.34 µM. Further, the equilibrium dissociation constant (Kd) at ROCK1 stood at 9 µM.

As to `Fc1ccc(N2CCN(c3nccc(-c4nccc(C#Cc5ccc6[nH]ncc6c5)n4)n3)CC2)cc1` [Ex. 53, 5-((2′-(4-(4-Fluorophenyl)piperazin-1-yl)-[2,4′-bipyrimidin]-4-yl)ethynyl)-1H-indazole], the “ROCK 2 Selectivity” value on ROCK2 is 58.8. For the same compound, the Kd amounted to 0.08 µM at ROCK2 and 4.7 µM on ROCK1.

With `CCCN1CCN(c2nccc(-c3nccc(C#Cc4ccc5[nH]ncc5c4)n3)n2)CC1` [Ex. 54, 5-((2′-(4-Propylpiperazin-1-yl)-[2,4′-bipyrimidin]-4-yl)ethynyl)-1H-indazole trifluoroacetate], on ROCK2, the “ROCK 2 Selectivity” value was 10.2 and the Kd came out at 0.45 µM. Also, the dissociation constant Kd at ROCK1 is 4.6 µM.

In the case of `C(#Cc1ccnc(-c2ccnc(N3CCC(c4ccccc4)CC3)n2)n1)c1ccc2[nH]ncc2c1` [Ex. 55, 5-((2′-(4-Phenylpiperidin-1-yl)-[2,4′-bipyrimidin]-4-yl)ethynyl)-1H-indazole], the “ROCK 2 Selectivity” value at ROCK2 is 28.9. In addition, the dissociation constant (Kd) at ROCK2 was determined as 0.9 µM; at ROCK1, 26 µM.

As for `Fc1ccc(C2CCN(c3nccc(-c4nccc(C#Cc5ccc6[nH]ncc6c5)n4)n3)CC2)cc1` [Ex. 56, 5-((2′-(4-(4-Fluorophenyl)piperidin-1-yl)-[2,4′-bipyrimidin]-4-yl)ethynyl)-1H-indazole], on ROCK2, the “ROCK 2 Selectivity” value is recorded as 35.6 and the dissociation constant Kd amounted to 0.73 µM. This compound came in with a dissociation constant (Kd) at ROCK1 of 26 µM.

For the compound `Clc1ccc(C2CN(c3nccc(-c4nccc(C#Cc5ccc6[nH]ncc6c5)n4)n3)C2)cc1` [Ex. 57, 5-((2′-(3-(4-Chlorophenyl)azetidin-1-yl)-[2,4′-bipyrimidin]-4-yl)ethynyl)-1H-indazole], at ROCK2, the “ROCK 2 Selectivity” value is listed as 30.5. The Kd on ROCK2 worked out at 0.22 µM; on ROCK1 it was 6.7 µM.
